| melting point [°C] | Compound |
| --- | --- |
| 71 to 73 | Clc1cccc(-n2ccnc2)n1 |
| 286 to 287 | COc1ccc(C(=O)Nc2ccc(C(=O)O)cc2)cc1C12CC3CC(CC(C3)C1)C2 |
| 73 to 76 | CC(C)(C)OC(=O)CN(O)CC(=O)OC(C)(C)C |
| 259 to 260 | COc1cccc(CNC(=O)c2nc3scc(-c4cccc(-c5ccc(C(=O)O)cc5)c4)c3c(=O)[nH]2)c1 |
| 124 to 127 | Cc1cccc(NC(=O)N(C)C)c1 |
| 154 to 156 | CCOC(CN1CCN(c2cccc(-n3cnc4cc(C(C)=O)ccc43)c2)CC1)=NO |
| 99 to 101 | CCOC(=O)COc1ccc(Cn2c(-c3ccc(Cl)cc3)c(C)c3cc(OCc4ccccc4)ccc32)cc1 |
| 209 to 211 | CCN(c1cccc(-c2ccnc3c([N+](=O)[O-])cnn23)c1)S(=O)(=O)c1ccc(OC)cc1 |
| > 230 | O=S(=O)(c1ccc(Cl)cc1)c1c(-c2ccc(Cl)cc2)[nH]c(C(F)(F)F)c1Br |
| 179 | CC(=O)c1ccc2c(c1)Sc1cc(C(C)=O)ccc1O2 |
| 222 to 223 | CCCCCCOc1c2c(c(-c3ccc4c(c3)OCO4)c3c4c(ccc13)OCO4)C(=O)NC2=O |
| 146 to 147 | Cc1ccc(-n2nc(C(F)F)cc2-c2ccc(S(C)(=O)=O)c(F)c2)cc1Cl |
| 43 to 46 | COC(=O)c1cc(Br)ncc1F |
| 110 to 112 | O=C(c1ccccc1)c1ccc(-c2ccc(CBr)cc2)cc1 |
| 177 to 179 | COC(=O)COCc1c(OC)ccc(OC)c1C=O |
| 140 to 142 | CCCCNC(=O)NS(=O)(=O)c1ccccc1S(=O)(=O)OCC(F)(F)F |
| 103 | CN(C)C=NS(=O)(=O)c1cc(CCNC(=O)C(F)(F)F)ccc1OCc1ccccc1 |
| 137 | COC(C)(C)CNCc1cnc2c(C)c(NC(=O)c3ccc(OCC4CCOC4)cc3)ccc2c1 (stereo not given) |
| 133 to 134 | CC(C)NC(=O)OCC(=O)c1ccc(-c2ccccc2)cc1 |
| 218 to 219 | CC(Oc1ccc2c(=O)c(-c3cccc(O)c3)coc2c1)C(=O)O (stereo not given) |
| 71 to 75 | CCCCCC(O)CCC1CCC(=O)C1CCCCC=CC(=O)O (stereo not given) |
| 271 to 272 | O=C(O)c1cccc2c(-c3ccccc3)c([N+](=O)[O-])oc12 |
| 95 to 97 | COC(=O)c1ccc(O)c(C(=O)CC(=O)c2ccccc2OCc2ccccc2)c1 |

| melting point [°C] | Compound |
| --- | --- |
| 200 to 201 | O=C1Nc2ccc(S(=O)(=O)N3CCCC3)cc2C1=O |
| > 300 | CC(C)(C)OC(=O)CC[C@H](NC(=O)c1ccc(C=Cc2cnc3nc(N)nc(N)c3c2)cc1)C(=O)OC(C)(C)C |
| 118 to 119 | CCCCCCOc1ccc(NC(=O)c2cnc(C(=O)OC)c(OC)c2)cc1 |
| 183 | CON(C)S(=O)(=O)c1ccccc1S(=O)(=O)NC(=O)n1nc(OCC(F)(F)F)n(C)c1=O |
| 277 to 279 | CCn1nc2c(N)nc3cnccc3c2c1CC(C)(C)O |
| 50 to 65 | COc1ncccc1OCC(O)CNC(C)C (stereo not given) |
| 218 | O=c1[nH]c2ccccc2n1CCN1CCN(C(c2ccccc2)c2ccccc2)CC1 |
| 176 | Oc1ccc(C2OCN3C2=CCC3CCc2ccccc2)cc1 (stereo not given) |
| 149 to 150 | COc1cccc(Oc2c(NS(=O)(=O)c3ccc(C(C)(C)C)cc3)ncnc2OCCOc2ccncn2)c1 |
| 189 to 190 | Cc1ccc(S(=O)(=O)c2cn(S(=O)(=O)c3ccccc3)c3ccccc23)cc1 |
| 158 to 160 | O=C(NC1=Cc2cncn2CN=C1)c1ccccc1 |
| 119 to 120 | Cc1cc(C)cc(NC(=O)Cc2ccc(OC3(C(=O)N[C@H](CC(C)C)C(=O)O)CCCC3)cc2)c1 |
| 192 to 196 | O=C1N2CCc3ccsc3C23SC1(c1ccccc1)CC3[N+](=O)[O-] (stereo not given) |
| 126 to 127 | COCCNC(=O)c1cccc(-c2cccc3cc(C(O)c4cccc(C(F)(F)F)c4)sc23)c1 (stereo not given) |
| 264 to 266 | Cc1cc2c3c(c1N)c(=O)c(C(=O)O)cn3C(C)CC2 (stereo not given) |
| 31 to 32 | CCCCCCCCCC(=O)c1ccc(Br)cc1F |
| 109 to 113 | O=C1CCC(=O)C1C(=O)c1ccc(Cl)cc1Cl |
| 92 to 93.5 | CCCCN(CCCC)CCCOc1ccc(C(=O)c2c(-c3ccccc3)cc3ccccn23)cc1 |
| 132 to 133 | O=C(NCCSc1ccncc1)c1ccccc1CO |
| 134 to 135 | Cc1c(Cl)ccnc1C(=O)NCCNC(=O)OC(C)(C)C |
| 298 to 300 | Cc1cc(C(=O)Nc2cc(-c3c(-c4ccc(F)c(C)c4)nc4cccnn34)ccn2)cc(Cl)n1 |
| 136 | CS(=O)(=O)n1ccc(-c2ccc(Oc3ccccc3)cc2)n1 |
| 128 to 129 | COc1cccc(Cc2nnc(NCCSCc3nccs3)[nH]c2=O)c1 |

| melting point [°C] | Compound |
| --- | --- |
| 145 to 150 | Cc1nc2c(C(=O)NC(C)(C(N)=O)C(C)C)c(C(=O)O)ccc2n1Cc1ccccc1 (stereo not given) |
| 103 | O=C1C=CC(O)(c2cccs2)C=C1 |
| 150 | CCC(Oc1ccc(C=Cc2nc[nH]n2)cc1)C(N)=O (stereo not given) |
| 120 to 123 | Cc1cc(-c2c(O)c(=O)c2=O)c2c(C)ccc(C(C)C)cc1-2 |
| 184 to 188 | O=C(CN1CCC(Cc2ccccc2)CC1)Nc1ccc2c(c1)OCC(=O)N2 |
| 120 to 121 | COc1cc(Cc2cnc(NCCCCc3ncc(Br)cc3C)[nH]c2=O)ccn1 |
| 184 to 186 | CN1CCN(c2cccc3c2C[C@H](NC(=O)c2ccc(C#N)cc2)CC3)CC1 |
| 157 to 159 | O=c1n(CCCF)nnn1-c1cc(Oc2ccc(O)cc2)c(Cl)cc1F |
| 114 to 116 | CN(Cc1ccc(S(C)(=O)=O)s1)C(=O)C12CC3CC(CC(C3)C1)C2 |
| 76 to 78 | CCN(CC)CCCN1CCC(O)(c2ccccc2)C(C(=O)c2ccccc2)C1 (stereo not given) |
| 215 | Cc1ccc(C=Cc2ccc(Br)cc2)cc1 |
| 240 to 243 | O=C1C=C(Nc2c(Br)cccc2Br)CCN1 |
| > 300 | O=S1(=O)N=C2CCCN2c2ccc(Oc3cccc(O)c3)cc21 |
| 197 | COc1cc(C(N)=O)c([N+](=O)[O-])cc1OC |
| 158 to 160 | COc1cccc(-c2cccc(Oc3nc(OC)cc(OC)n3)c2C(=O)O)n1 |
| 178 to 180 | Oc1cc(O)c2c(c1)Oc1cc(Br)ccc1CC2 |
| 99 to 100 | CCOC(=O)c1ccc(C(=O)OCC)c2cc3ccccc3cc12 |
| 124 to 125 | CCCCCCS(=O)(=O)c1nn2c(=O)c(C(C)=O)cnc2s1 |
| 106 to 108 | COc1ccc2c(n1)C1(CO2)C(=O)N(Cc2ccc(C(F)(F)F)o2)c2cccc(Cl)c21 (stereo not given) |
| > 250 | Cc1cc(OCC(=O)O)ccc1NC(=O)c1ccc(N2CCNCC2)cc1 |
| 232 to 233 | CCc1nc2c(N)nc3ccccc3c2n1Cc1cc(-c2ccc(F)cc2)no1 |
| 97 | CCOC(=O)C(C(=O)OCC)N1CS(=O)c2c(C)cc([N+](=O)[O-])cc21 (stereo not given) |

| Compound | melting point [°C] |
| --- | --- |
| O=C1Nc2ccccc2C(c2ccccc2F)=NC1Cc1cccs1 (racemic) | 189 to 191 |
| COc1ccc2c(CCN3CC=C(c4c[nH]c5ccccc45)CC3)coc2c1 | 54 |

Source: a melting point compilation (Tetko et al.; mined from patent text by program, amines drawn as free bases though some values may be those of a salt)
